How the values were obtained:
Type in all cases: biochemical
[1] = molecular target: T1, TIE2 (Homo sapiens, UniProt Q02763); experiment: Radiometric protein kinase assay, TIE2; conditions: 1 μM ATP; read-out: Inhibitory activity (IC50:μM) TIE2
T1 construct: host or cells: Sf9 insect cells (baculovirus)
From the text: (§1) All protein kinases were expressed in Sf9 insect cells as human recombinant GST-fusion proteins or His-tagged proteins by means of the baculovirus expression system. Kinases were purified by affinity chromatography using either GSH-agarose (Sigma) or Ni-NTH-agarose (Qiagen). The purity of each kinase was checked by SDS-PAGE/silver staining and the identity of each kinase was verified by western blot analysis with kinase specific antibodies or by mass spectroscopy.
(§2) A radiometric protein kinase assay (^33PanQinase® Activity Assay) was used for measuring the kinase activity of the 24 protein kinases. All kinase assays were performed in 96-well FlashPlates™ from Perkin Elmer (Boston, Mass., USA) in a 50 μl reaction volume. The reaction cocktail was pipetted in 4 steps in the following order: • 20 μl of assay buffer • 5 μl of ATP solution (in H2O) • 5 μl of test compound (in 10% DMSO) • 10 μl of substrate/10 […] of enzyme solution (premixed) […]
(§3) The reaction cocktails were incubated at 30° C. for 80 minutes. […] Incorporation of ^33Pi was determined with a microplate scintillation counter (Microbeta Trilux, Wallac).
(§4) The median value of the counts in column 1 (n=8) of each assay plate was defined as “low control”. This value reflects unspecific binding of radioactivity to the plate in the absence of a protein kinase but in the presence of the substrate. […]
(§5) As part of the data evaluation the low control value from a particular plate was subtracted from the high control value as well as from all 80 “compound values” of the corresponding plate. The residual activity (in %) for each well of a particular plate was calculated by using the following formula: Res. Activity (%)=100×[(cpm of compound−low control)/(high control−low control)]
(§6) The residual activities for each concentration and the compound IC50 values were calculated using Quattro Workflow V2.1.0.0 (Quattro Research GmbH, Munich, Germany; www.quattro-research.com). […]

[2] = molecular target: T2, FAK (Homo sapiens, UniProt Q05397); experiment: Radiometric protein kinase assay, FAK; conditions: 1 μM ATP; read-out: Inhibitory activity (IC50:μM) FAK
T2 construct: host or cells: Sf9 insect cells (baculovirus)
From the text: as §1
(§7) A radiometric protein kinase assay (^33PanQinase® Activity Assay) was used for measuring the kinase activity of the 24 protein kinases. All kinase assays were performed in 96-well FlashPlates™ from Perkin Elmer (Boston, Mass., USA) in a 50 μl reaction volume. The reaction cocktail was pipetted in 4 steps in the following order: • 20 μl of assay buffer • 5 μl of ATP solution (in H2O) • 5 μl of test compound (in 10% DMSO) • 10 μl of substrate/10 […] of enzyme solution (premixed)
(§8) The assay for all enzymes contained 60 mM HEPES-NaOH, pH 7.5, 3 mM MgCl2, 3 mM MnCl2, 3 μM Na-orthovanadate, 1.2 mM DTT, 50 μg/ml PEG20000, 1 μM [γ-^33P]-ATP (approx. 5×10^05 cpm per well).
(§9) For the 24 kinase assays, the following amounts of enzyme and substrate were used per well:
(§10) The reaction cocktails were incubated at 30° C. for 80 minutes. The reaction was stopped with 50 μl of 2% (v/v) H3PO4, plates were aspirated and washed two times with 200 μl of 0.9% (w/v) NaCl or 200 μl H2O. Incorporation of ^33Pi was determined with a microplate scintillation counter (Microbeta Trilux, Wallac).
(§11) The median value of the counts in column 1 (n=8) of each assay plate was defined as “low control”. This value reflects unspecific binding of radioactivity to the plate in the absence of a protein kinase but in the presence of the substrate. The median value of the counts in column 7 of each assay plate (n=8) was taken as the “high control”, i.e. full activity in the absence of any inhibitor. The difference between high and low control was taken as 100% activity.
as §5
(§12) The residual activities for each concentration and the compound IC50 values were calculated using Quattro Workflow V2.1.0.0 (Quattro Research GmbH, Munich, Germany; www.quattro-research.com). The model used was “Sigmoidal response (variable slope)” with parameters “top” fixed at 100% and “bottom” at 0%.

[3] = molecular target: T3, CDK4/CycD1 (Homo sapiens, UniProt P11802); experiment: Radiometric protein kinase assay, CDK4/CycD1; conditions: 1 μM ATP; read-out: Inhibitory activity (IC50:μM) CDK4/CycD1
T3 construct: host or cells: Sf9 insect cells (baculovirus)
From the text: as §1, §7, §8, §9, §10, §11, §5, §12

[4] = molecular target: T4, IGF1-R (Homo sapiens, UniProt P08069); experiment: Radiometric protein kinase assay, IGF1-R; conditions: 1 μM ATP; read-out: Inhibitory activity (IC50:μM) IGF1-R
T4 construct: host or cells: Sf9 insect cells (baculovirus)
From the text: as §1, §7, §8, §9, §10, §11, §5, §12

[5] = molecular target: T5, MET (Homo sapiens, UniProt P08581); experiment: Radiometric protein kinase assay, MET; conditions: 1 μM ATP; read-out: Inhibitory activity (IC50:μM) MET
T5 construct: host or cells: Sf9 insect cells (baculovirus)
From the text: as §1, §2, §3, §4, §5, §6

[6] = molecular target: T6, FLT3 (Homo sapiens, UniProt P36888); experiment: Radiometric protein kinase assay, FLT3; conditions: 1 μM ATP; read-out: Inhibitory activity (IC50:μM) FLT3
T6 construct: host or cells: Sf9 insect cells (baculovirus)
T6 sequence (P36888 27-993): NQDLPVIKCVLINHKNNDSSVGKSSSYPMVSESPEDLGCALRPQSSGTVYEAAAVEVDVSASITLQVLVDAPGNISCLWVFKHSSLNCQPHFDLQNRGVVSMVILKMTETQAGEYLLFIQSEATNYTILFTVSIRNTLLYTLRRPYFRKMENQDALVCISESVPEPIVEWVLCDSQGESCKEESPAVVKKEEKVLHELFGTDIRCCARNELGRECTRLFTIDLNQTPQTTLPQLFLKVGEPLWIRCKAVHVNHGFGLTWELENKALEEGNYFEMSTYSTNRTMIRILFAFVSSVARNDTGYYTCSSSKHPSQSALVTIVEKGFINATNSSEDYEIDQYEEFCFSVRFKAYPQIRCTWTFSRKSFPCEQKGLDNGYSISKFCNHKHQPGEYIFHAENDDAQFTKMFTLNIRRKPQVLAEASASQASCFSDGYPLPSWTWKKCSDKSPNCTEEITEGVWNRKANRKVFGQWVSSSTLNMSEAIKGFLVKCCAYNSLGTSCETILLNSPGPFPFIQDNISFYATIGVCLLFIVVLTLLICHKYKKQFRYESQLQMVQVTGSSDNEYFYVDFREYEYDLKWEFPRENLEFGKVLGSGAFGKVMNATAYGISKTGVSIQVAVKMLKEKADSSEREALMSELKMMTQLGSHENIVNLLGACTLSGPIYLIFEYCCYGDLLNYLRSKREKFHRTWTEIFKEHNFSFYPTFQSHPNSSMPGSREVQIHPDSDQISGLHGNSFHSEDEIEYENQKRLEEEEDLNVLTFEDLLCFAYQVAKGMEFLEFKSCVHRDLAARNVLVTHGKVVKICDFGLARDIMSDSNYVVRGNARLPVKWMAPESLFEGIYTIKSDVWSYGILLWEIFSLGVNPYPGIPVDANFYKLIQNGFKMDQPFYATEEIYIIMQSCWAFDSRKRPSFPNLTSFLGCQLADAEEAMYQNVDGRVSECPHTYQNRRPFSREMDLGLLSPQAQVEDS
From the text: as §1, §7, §8, §9, §10, §11, §5, §12

[7] = molecular target: T7, Aurora-A (Homo sapiens, UniProt O14965); experiment: Radiometric protein kinase assay, Aurora-A; conditions: 1 μM ATP; read-out: Inhibitory activity (IC50:μM) Aurora-A
T7 construct: host or cells: Sf9 insect cells (baculovirus)
T7 sequence (O14965 1-403): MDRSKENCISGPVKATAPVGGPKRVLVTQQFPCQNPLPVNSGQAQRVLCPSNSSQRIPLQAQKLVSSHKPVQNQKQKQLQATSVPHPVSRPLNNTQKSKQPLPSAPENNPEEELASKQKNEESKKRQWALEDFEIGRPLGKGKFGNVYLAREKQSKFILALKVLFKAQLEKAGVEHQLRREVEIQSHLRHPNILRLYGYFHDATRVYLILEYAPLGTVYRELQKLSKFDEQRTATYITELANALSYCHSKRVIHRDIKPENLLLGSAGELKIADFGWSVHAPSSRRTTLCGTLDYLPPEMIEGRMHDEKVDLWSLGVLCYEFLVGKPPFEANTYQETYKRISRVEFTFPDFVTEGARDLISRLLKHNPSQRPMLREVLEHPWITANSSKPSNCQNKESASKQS
From the text: as §1, §7, §8, §9, §10, §11, §5, §12

T2 sequence (Q05397 whole entry): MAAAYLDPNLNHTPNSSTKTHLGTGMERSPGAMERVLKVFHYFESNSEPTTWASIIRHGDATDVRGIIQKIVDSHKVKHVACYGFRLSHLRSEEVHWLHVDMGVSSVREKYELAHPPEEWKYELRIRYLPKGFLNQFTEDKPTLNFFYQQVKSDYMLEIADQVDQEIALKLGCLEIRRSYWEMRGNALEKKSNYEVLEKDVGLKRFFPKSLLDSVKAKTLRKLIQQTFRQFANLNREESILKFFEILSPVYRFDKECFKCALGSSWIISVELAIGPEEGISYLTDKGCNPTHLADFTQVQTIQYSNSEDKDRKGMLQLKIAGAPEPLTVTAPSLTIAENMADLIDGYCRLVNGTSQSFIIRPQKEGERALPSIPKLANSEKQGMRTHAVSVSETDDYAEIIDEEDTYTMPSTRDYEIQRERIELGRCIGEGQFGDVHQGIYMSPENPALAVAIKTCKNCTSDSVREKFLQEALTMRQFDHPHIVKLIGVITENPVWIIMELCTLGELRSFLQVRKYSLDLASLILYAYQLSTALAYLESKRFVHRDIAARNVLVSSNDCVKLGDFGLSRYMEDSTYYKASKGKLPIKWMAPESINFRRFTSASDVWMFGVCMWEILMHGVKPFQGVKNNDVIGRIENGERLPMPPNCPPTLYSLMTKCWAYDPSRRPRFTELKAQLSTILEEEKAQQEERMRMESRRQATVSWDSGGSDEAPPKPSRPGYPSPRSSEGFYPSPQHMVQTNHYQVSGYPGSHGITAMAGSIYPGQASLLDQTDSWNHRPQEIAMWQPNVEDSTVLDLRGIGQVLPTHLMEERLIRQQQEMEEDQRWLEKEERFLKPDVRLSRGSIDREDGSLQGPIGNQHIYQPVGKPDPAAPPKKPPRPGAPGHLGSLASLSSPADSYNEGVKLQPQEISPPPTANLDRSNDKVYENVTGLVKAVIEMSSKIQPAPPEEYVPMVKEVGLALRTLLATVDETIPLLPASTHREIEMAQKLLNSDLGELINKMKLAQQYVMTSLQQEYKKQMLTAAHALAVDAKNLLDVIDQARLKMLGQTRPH
T1 sequence (Q02763 23-1124): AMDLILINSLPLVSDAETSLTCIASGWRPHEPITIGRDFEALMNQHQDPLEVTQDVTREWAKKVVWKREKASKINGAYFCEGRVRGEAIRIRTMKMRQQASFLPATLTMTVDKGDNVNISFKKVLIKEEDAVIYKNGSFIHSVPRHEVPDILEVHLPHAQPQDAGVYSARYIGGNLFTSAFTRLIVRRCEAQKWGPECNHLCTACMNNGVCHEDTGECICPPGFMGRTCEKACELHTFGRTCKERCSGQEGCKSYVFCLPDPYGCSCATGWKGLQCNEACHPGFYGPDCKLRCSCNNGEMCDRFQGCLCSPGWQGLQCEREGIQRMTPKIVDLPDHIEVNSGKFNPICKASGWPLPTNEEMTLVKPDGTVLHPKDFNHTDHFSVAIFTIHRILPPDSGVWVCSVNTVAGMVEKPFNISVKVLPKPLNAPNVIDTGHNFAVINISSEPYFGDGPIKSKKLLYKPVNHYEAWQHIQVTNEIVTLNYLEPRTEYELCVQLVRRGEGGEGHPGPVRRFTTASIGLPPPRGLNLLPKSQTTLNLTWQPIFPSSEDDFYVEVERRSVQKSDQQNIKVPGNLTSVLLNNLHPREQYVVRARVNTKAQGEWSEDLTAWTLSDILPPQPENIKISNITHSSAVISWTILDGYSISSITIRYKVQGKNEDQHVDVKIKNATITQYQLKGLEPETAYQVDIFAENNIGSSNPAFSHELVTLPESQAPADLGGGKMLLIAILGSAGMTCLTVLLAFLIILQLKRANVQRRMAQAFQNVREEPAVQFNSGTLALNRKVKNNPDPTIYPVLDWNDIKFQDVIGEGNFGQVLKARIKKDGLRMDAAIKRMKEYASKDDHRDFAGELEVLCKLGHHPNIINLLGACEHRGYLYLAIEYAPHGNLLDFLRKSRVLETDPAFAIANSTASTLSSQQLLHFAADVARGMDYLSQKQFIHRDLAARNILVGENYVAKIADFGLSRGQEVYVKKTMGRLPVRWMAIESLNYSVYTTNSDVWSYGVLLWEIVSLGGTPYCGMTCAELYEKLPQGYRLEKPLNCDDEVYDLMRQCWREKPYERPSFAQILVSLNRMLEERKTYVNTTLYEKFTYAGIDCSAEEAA
T4 sequence (P08069 31-1367): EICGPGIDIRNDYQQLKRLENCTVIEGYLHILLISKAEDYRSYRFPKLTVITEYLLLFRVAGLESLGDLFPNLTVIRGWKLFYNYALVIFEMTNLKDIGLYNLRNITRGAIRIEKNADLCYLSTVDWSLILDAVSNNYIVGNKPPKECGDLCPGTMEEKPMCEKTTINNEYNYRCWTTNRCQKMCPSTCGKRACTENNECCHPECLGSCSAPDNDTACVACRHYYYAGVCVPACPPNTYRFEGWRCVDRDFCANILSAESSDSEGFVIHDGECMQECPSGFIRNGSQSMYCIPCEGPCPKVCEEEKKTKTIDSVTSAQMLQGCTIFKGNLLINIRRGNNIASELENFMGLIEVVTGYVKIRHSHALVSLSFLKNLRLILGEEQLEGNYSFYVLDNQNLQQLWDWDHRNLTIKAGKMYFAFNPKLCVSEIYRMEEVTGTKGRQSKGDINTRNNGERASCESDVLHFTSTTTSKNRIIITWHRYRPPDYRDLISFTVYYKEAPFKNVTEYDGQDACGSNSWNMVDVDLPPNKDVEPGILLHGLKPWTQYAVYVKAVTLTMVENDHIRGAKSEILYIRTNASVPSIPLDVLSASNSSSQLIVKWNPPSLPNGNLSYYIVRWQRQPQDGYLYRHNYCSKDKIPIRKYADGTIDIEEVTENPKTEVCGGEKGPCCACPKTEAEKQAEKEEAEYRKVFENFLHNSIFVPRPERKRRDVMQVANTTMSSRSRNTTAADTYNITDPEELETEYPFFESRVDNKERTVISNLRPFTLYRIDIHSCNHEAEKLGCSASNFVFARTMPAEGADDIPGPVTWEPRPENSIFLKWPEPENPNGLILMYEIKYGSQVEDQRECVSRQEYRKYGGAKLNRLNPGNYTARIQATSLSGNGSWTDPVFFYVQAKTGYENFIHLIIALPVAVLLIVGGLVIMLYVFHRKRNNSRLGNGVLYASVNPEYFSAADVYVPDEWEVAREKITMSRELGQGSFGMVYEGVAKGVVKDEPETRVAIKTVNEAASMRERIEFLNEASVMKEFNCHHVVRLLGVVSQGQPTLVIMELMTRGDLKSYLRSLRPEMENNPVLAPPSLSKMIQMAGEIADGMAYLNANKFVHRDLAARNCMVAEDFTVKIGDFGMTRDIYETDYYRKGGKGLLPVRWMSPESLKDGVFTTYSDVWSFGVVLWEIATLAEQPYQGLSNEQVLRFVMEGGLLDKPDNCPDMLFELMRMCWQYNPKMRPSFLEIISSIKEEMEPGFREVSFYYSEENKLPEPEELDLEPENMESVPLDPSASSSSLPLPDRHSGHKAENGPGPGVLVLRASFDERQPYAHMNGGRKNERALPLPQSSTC
T5 sequence (P08581 25-1390): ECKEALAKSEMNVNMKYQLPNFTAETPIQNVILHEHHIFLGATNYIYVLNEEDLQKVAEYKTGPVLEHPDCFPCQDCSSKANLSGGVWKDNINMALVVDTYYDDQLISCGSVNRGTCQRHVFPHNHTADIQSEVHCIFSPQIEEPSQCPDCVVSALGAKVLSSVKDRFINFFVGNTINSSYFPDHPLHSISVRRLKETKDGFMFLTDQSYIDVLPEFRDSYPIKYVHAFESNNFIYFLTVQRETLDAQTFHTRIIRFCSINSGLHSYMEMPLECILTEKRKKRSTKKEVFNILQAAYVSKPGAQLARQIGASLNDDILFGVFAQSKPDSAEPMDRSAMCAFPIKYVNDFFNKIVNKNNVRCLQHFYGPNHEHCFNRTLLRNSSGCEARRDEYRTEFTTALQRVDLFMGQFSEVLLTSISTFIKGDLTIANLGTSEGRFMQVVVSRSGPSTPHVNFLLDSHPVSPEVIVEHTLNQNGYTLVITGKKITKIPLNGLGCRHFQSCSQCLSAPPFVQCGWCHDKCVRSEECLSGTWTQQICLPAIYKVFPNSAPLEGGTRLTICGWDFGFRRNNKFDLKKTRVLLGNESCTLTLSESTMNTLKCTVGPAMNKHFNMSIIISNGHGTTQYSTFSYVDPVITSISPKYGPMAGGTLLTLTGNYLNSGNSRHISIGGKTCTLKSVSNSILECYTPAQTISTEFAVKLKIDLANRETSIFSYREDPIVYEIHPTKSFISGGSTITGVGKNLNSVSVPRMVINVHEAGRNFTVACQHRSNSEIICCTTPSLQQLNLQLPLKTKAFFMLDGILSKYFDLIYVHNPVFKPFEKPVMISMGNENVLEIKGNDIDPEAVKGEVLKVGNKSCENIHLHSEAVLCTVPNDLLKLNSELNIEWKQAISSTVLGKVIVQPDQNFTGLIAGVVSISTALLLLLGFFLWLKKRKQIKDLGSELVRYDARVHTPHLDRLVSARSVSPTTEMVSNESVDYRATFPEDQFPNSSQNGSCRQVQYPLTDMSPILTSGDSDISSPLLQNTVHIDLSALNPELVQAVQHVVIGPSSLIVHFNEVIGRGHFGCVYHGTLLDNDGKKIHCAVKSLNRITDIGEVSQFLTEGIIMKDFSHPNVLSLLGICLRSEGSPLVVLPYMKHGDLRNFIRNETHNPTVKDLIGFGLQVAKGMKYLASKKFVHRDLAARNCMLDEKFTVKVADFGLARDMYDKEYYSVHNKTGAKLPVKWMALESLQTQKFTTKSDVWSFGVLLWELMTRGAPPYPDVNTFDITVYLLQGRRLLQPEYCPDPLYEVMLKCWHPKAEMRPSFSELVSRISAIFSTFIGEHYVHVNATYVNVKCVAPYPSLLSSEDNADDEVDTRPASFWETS

Row | Compound | IC50 [1] [µM] | IC50 [2] [µM] | IC50 [3] [µM] | IC50 [4] [µM] | IC50 [5] [µM] | IC50 [6] [µM] | IC50 [7] [µM]
1 | COC1CC/C=C/C[C@H](c2ccccc2)OC(=O)c2c(O)cc(O)c(Cl)c2CC(=O)C1 (stereo partly drawn) [A-2] | 16 | 14 | 50 | 16 | 32 | 23 | 14
2 | O=C1Cc2c(Cl)c(O)cc(O)c2C(=O)O[C@H](c2ccccc2)C/C=C/CCC(Cl)C1 (stereo partly drawn) [A-3] | 15 | 9 | 30 | 19 | 29 | 23 | –
3 | CC(C)[C@@H]1CC2OC2CC/C=C/C(=O)Cc2c(Cl)c(O)cc(O)c2C(=O)O1 (stereo partly drawn) [A-4] | – | 37 | 48 | 13 | – | 45 | 30
4 | O=C1/C=C/CCC2OC2C[C@H](c2ccccc2)OC(=O)c2c(O)cc(O)c(Cl)c2C1 (stereo partly drawn) [A-5] | – | 38 | 45 | – | – | – | 47
5 | O=C1/C=C/CCC2OC2C[C@@H](Cc2ccccc2)OC(=O)c2c(O)cc(O)cc2C1 (stereo partly drawn) [A-6] | 25 | 34 | 37 | 21 | 36 | 44 | –

— patent US8450305B2, “Macrocyclic compounds useful as inhibitors of kinases and HSP90” (Universite de Strasbourg, priority 2006, dated 2013)
